Several values for one entry are separate records, joined by “and”; a condition that tells them apart may be missing. Equal entries are not always repeated. Toxic doses and inconclusive results are not listed. Rule for the calls: active = survival T/C of 150% or more; inactive = T/C below 125% in these data.
System: P388 leukemia ip, CD2F1 mice, survival T/C
Assay: NCI In Vivo Anticancer Drug Screen. Data for tumor model P388 Leukemia (intraperitoneal) in CD2F1 (CDF1) mice
Details: endpoint: median survival time, higher = longer survival
How it was run: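 Mice carrying the transplanted tumor received test compound or vehicle. Survival was recorded in each group, and the value is the treated-group measurement divided by that of the vehicle-treated control group.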

[1] = dose: 50.0 mg/kg/injection, schedule: Q01DX009 (ip), vehicle: Klucel (hydroxypropylcellulose) (HPC)
[2] = dose: 100.0 mg/kg/injection, schedule: Q01DX009 (ip), vehicle: Klucel (hydroxypropylcellulose) (HPC)
[3] = dose: 200.0 mg/kg/injection, schedule: Q01DX009 (ip), vehicle: Klucel (hydroxypropylcellulose) (HPC)
[4] = dose: 12.5 mg/kg/injection, schedule: Q01DX009 (ip), vehicle: saline
[5] = dose: 25.0 mg/kg/injection, schedule: Q01DX009 (ip), vehicle: saline
[6] = dose: 50.0 mg/kg/injection, schedule: Q01DX005 (ip), vehicle: Klucel (hydroxypropylcellulose) (HPC)
[7] = dose: 100.0 mg/kg/injection, schedule: Q01DX005 (ip), vehicle: Klucel (hydroxypropylcellulose) (HPC)
[8] = dose: 100.0 mg/kg/injection, schedule: Q04DX002 (ip), vehicle: Klucel (hydroxypropylcellulose) (HPC)
[9] = dose: 200.0 mg/kg/injection, schedule: Q04DX002 (ip), vehicle: Klucel (hydroxypropylcellulose) (HPC)
[10] = dose: 400.0 mg/kg/injection, schedule: Q04DX002 (ip), vehicle: Klucel (hydroxypropylcellulose) (HPC)
[11] = dose: 60.0 mg/kg/injection, schedule: Q01DX005 (ip), vehicle: saline with Tween-80
[12] = dose: 50.0 mg/kg/injection, schedule: Q01DX009 (ip), vehicle: saline
[13] = dose: 50.0 mg/kg/injection, schedule: Q01DX009 (ip), vehicle: saline with Tween-80
[14] = dose: 120.0 mg/kg/injection, schedule: Q01DX005 (ip), vehicle: saline with Tween-80
[15] = dose: 240.0 mg/kg/injection, schedule: Q01DX005 (ip), vehicle: saline with Tween-80

Measured: T/C

CN(C)CCCNc1nc2ccccc2c2ccnn12
inactive: dose: 5.5 mg/kg/injection, schedule: Q01DX009 (ip), vehicle: saline 109 % of control | dose: 11.0 mg/kg/injection, schedule: Q01DX009 (ip), vehicle: saline 100 % of control | dose: 22.0 mg/kg/injection, schedule: Q01DX009 (ip), vehicle: saline 100 % of control

Cc1ccc(S(=O)(=O)NCCCc2ccccc2)cc1
inactive: [1] 118 % of control | [2] 123 % of control | [3] 115 % of control

CCOc1ccc(NC(=O)C(C(C)N2CCCCC2)N2CCCCC2)cc1 (centres undefined)
inactive: [4] 93 % of control | [5] 87 % of control

C/C=C/C[P+](c1ccccc1)(c1ccccc1)c1cccc2ccccc12
inactive: dose: 6.25 mg/kg/injection, schedule: Q04DX002 (ip), vehicle: saline with Tween-80 121 % of control | dose: 12.5 mg/kg/injection, schedule: Q04DX002 (ip), vehicle: saline with Tween-80 99 % of control | dose: 25.0 mg/kg/injection, schedule: Q04DX002 (ip), vehicle: saline with Tween-80 108 % of control

CN(C)CCCC1(c2ccccc2)SC(C)(C)c2ccc(Cl)cc21 (centres undefined)
inactive: dose: 25.0 mg/kg/injection, schedule: Q01DX001 (ip), vehicle: Klucel (hydroxypropylcellulose) (HPC) 102 % of control | dose: 50.0 mg/kg/injection, schedule: Q01DX001 (ip), vehicle: Klucel (hydroxypropylcellulose) (HPC) 100 % of control

CC(C)(S)[C@H]1NC(=O)NC1=O
inactive: [6] 99 % of control | [7] 99 % of control | dose: 200.0 mg/kg/injection, schedule: Q01DX005 (ip), vehicle: Klucel (hydroxypropylcellulose) (HPC) 103 % of control

CC(=O)N/N=C(/C(=O)O)c1ccccc1
inactive: [8] 98 % of control | [9] 99 % of control | [10] 95 % of control

ClC(Cl)(Cl)C(=NN=C(C(Cl)(Cl)Cl)C(Cl)(Cl)Cl)C(Cl)(Cl)Cl
inactive: dose: 15.0 mg/kg/injection, schedule: Q01DX005 (ip), vehicle: saline with Tween-80 106 % of control | dose: 30.0 mg/kg/injection, schedule: Q01DX005 (ip), vehicle: saline with Tween-80 103 % of control | [11] 100 % of control and 109 % of control

CCCCSc1nc2ccc(N=Cc3ccccc3O)cc2s1
inactive: [1] 103 % of control | [2] 99 % of control

CC(=O)c1ccc2c(c1)-c1ccccc1C(=O)C2=O
inactive: [5] 98 % of control | [12] 106 % of control and 110 % of control | dose: 100.0 mg/kg/injection, schedule: Q01DX009 (ip), vehicle: saline 113 % of control and 119 % of control

FC(F)(F)C1(C(F)(F)F)OS2(F)(F)(OC(C(F)(F)F)(C(F)(F)F)c3ccccc32)c2ccccc21
inactive: dose: 25.0 mg/kg/injection, schedule: Q01DX005 (ip), vehicle: Klucel (hydroxypropylcellulose) (HPC) 92 % of control | [6] 95 % of control | [7] 94 % of control

CCCCCCCCCC(O)CCCCCCCCC
inactive: dose: 100.0 mg/kg/injection, schedule: Q04DX003 (ip), vehicle: other 100 % of control | dose: 200.0 mg/kg/injection, schedule: Q04DX003 (ip), vehicle: other 90 % of control | dose: 400.0 mg/kg/injection, schedule: Q04DX003 (ip), vehicle: other 90 % of control

CC(=O)c1ccc(OCc2ccccc2)c(OCc2ccccc2)c1
inactive: [13] 115 % of control | dose: 100.0 mg/kg/injection, schedule: Q01DX009 (ip), vehicle: saline with Tween-80 106 % of control | dose: 200.0 mg/kg/injection, schedule: Q01DX009 (ip), vehicle: saline with Tween-80 95 % of control | dose: 400.0 mg/kg/injection, schedule: Q01DX009 (ip), vehicle: saline with Tween-80 93 % of control

O=C(N=Nc1c(Cl)c(O)c2ccccc2c1O)c1ccccc1O
inactive: dose: 6.25 mg/kg/injection, schedule: Q01DX009 (ip), vehicle: saline with Tween-80 100 % of control | dose: 12.5 mg/kg/injection, schedule: Q01DX009 (ip), vehicle: saline with Tween-80 108 % of control | dose: 25.0 mg/kg/injection, schedule: Q01DX009 (ip), vehicle: saline with Tween-80 106 % of control | [13] 104 % of control and 115 % of control

CC(=O)NCCc1nc(-c2nc(C(=O)O)cs2)cs1
inactive: dose: 12.5 mg/kg/injection, schedule: Q01DX009 (ip), vehicle: distilled water + Tween-80 102 % of control | dose: 25.0 mg/kg/injection, schedule: Q01DX009 (ip), vehicle: distilled water + Tween-80 100 % of control | dose: 50.0 mg/kg/injection, schedule: Q01DX009 (ip), vehicle: distilled water + Tween-80 102 % of control | dose: 100.0 mg/kg/injection, schedule: Q01DX009 (ip), vehicle: distilled water + Tween-80 100 % of control

C#CCC(C(=O)OC)N(CC)CC (centres undefined)
inactive: dose: 60.0 mg/kg/injection, schedule: Q01DX005 (ip), vehicle: saline 107 % of control | dose: 120.0 mg/kg/injection, schedule: Q01DX005 (ip), vehicle: saline 111 % of control | dose: 240.0 mg/kg/injection, schedule: Q01DX005 (ip), vehicle: saline 120 % of control

CSc1nc2c(=S)[nH]c(=S)[nH]c2s1
inactive: [8] 101 % of control | [9] 100 % of control | [10] 100 % of control

COc1ccc2nc(NN=O)sc2c1
inactive: dose: 1.56 mg/kg/injection, schedule: Q01DX009 (ip), vehicle: water 92 % of control | dose: 3.12 mg/kg/injection, schedule: Q01DX009 (ip), vehicle: water 101 % of control and 103 % of control | dose: 6.25 mg/kg/injection, schedule: Q01DX009 (ip), vehicle: water 100 % of control and 92 % of control | dose: 12.5 mg/kg/injection, schedule: Q01DX009 (ip), vehicle: water 100 % of control and 101 % of control | dose: 25.0 mg/kg/injection, schedule: Q01DX009 (ip), vehicle: water 104 % of control and 97 % of control | dose: 50.0 mg/kg/injection, schedule: Q01DX009 (ip), vehicle: water 111 % of control

COc1ccc(Cc2coc3ccccc3c2=O)cc1OC
inactive: [11] 102 % of control | [14] 97 % of control | [15] 97 % of control

O=C(/C=C/c1ccc(Cl)c(Cl)c1)c1cccc(O)c(=O)c1
inactive: dose: 25.0 mg/kg/injection, schedule: Q01DX009 (ip), vehicle: Klucel (hydroxypropylcellulose) (HPC) 102 % of control | [1] 111 % of control and 118 % of control | [2] 118 % of control | [3] 118 % of control

CCN(CC)c1nc(/C=C\c2ccc(N(C)C)cc2)c2nccnc2n1
inactive: [1] 95 % of control | [2] 90 % of control | [3] 94 % of control

BrC1CCCCC(Br)C12OCCO2 (centres undefined)
inactive: dose: 100.0 mg/kg/injection, schedule: Q04DX003 (ip), vehicle: saline 107 % of control | dose: 200.0 mg/kg/injection, schedule: Q04DX003 (ip), vehicle: saline 104 % of control | dose: 400.0 mg/kg/injection, schedule: Q04DX003 (ip), vehicle: saline 106 % of control

CCCCCCCC(=O)OOC(C)(C)C
inactive: [11] 105 % of control | [14] 105 % of control | [15] 108 % of control

CCC[CH2][Sn]([F])([F])[CH2]CCC
inactive: dose: 6.25 mg/kg/injection, schedule: Q04DX003 (ip), vehicle: saline 107 % of control | dose: 12.5 mg/kg/injection, schedule: Q04DX003 (ip), vehicle: saline 114 % of control | dose: 25.0 mg/kg/injection, schedule: Q04DX003 (ip), vehicle: saline 118 % of control

CC12CC(=O)CC1(C)CC(=O)C2 (centres undefined)
inactive: [4] 92 % of control | [5] 92 % of control | [12] 86 % of control and 97 % of control

— PubChem BioAssay AID330 (DTP/NCI, 2004)
